# Reference: patent publication US20060058384A1, “Treatment of IGA nephropathy with omega-3 fatty acids” (PRONOVA BIOCARE, A.S., priority 2004, published 2006)
# Entries after “also recorded” stand apart in the source; their conditions may differ.
# Test system: patients with IgA nephropathy
# Assay: Placebo-controlled clinical trial in IgA nephropathy: GFRest, UP/C and Composite Response/Outcome Scores
# Format: in vivo, human
# Description: In a multicenter, placebo-controlled, double blind clinical trial, we evaluated the efficacy of a 24-month stable daily dose (4 grams per day) of a highly purified preparation of O3 (especially icosapent & doconexent).
# We performed secondary analyses based on clinical response scores derived from changes in the level of proteinuria (defined by urine protein to creatinine ratios in first morning urine specimens) and GFRest. Composite Response Score, which represented changes in proteinuria and GFR scores were also calculated.
# This was a placebo-controlled, prospective clinical trial. After fulfilling all entry criteria, patients were assigned to one of three treatment arms, as described in our paper discussing the primary analysis of this study.
# Randomization of patients was stratified by hypertensive status and blocked randomization was used within each stratum.
# Estimation of GFR and level of proteinuria. The glomerular filtration rate (GFR) was estimated at 6 monthly intervals in each patient using standard age-appropriate formulas. […] Serum creatinine measurements were measured by HPLC. […]
# Statistical analysis: After it was noted that there was wide variation in the plasma phospholipid fatty acid profiles in patients receiving icosapent/doconexent (FIG. 1), a series of secondary analyses was conducted to determine the cause for this variability and to evaluate if the fatty acid profiles affected patient outcome. Clinical response scores were determined for each patient based on changes in the estimated GFR (−5 to +5) and urine protein/creatinine ratios (−5 to +5) at each 6 month visit up to 36 months. Composite response scores (−10 to +10) at each time interval were then determined based on the patients' combined GFR and UP/C Response Scores—with equal weight given to each (Table 1). Clinical outcome scores were then calculated based on the mean of the Composite Response Scores at 18 and 24 months. The dosage of the study drugs given to each patient was calculated as g/kg body weight and g/m^2 BSA. […]
smiles,measurement,setting,value
C[C@]12C=CC(=O)C=C1CC[C@@H]1[C@@H]2C(=O)C[C@@]2(C)[C@H]1CC[C@]2(O)C(=O)CO [prednisone],"Composite Response Scores, treatment arm as a whole","6-month intervals, 0 to 36 months, FIG. 2",significantly better; also recorded: better response
same,Primary analysis: decrease of GFR to less than 60% of baseline,"24-month treatment, O3 4 grams per day, prednisone alternate-day",did not show a statistically significant benefit
same,Secondary analysis: efficacy by clinical response scores (proteinuria and GFRest),secondary analyses,effective
